Experimental data taken from PubChem BioAssay (NCI).
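Assay format: 96-well plates, 48-hour exposure. At the GI50, growth is halved. TGI denotes the concentration required for complete inhibition of growth.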

Legend:
Experiment in all cases: inhibition of tumour cell growth, NCI panel, 48 h
[1] = tested on: SK-MEL-5 melanoma
[2] = tested on: HOP-62 NSCLC
[3] = tested on: KM12 colon
[4] = tested on: SF-268 CNS
[5] = tested on: LOX IMVI melanoma
[6] = tested on: 786-0 renal
[7] = tested on: CAKI-1 renal
[8] = tested on: U251 CNS
[9] = tested on: COLO 205 colon
[10] = tested on: SNB-75 CNS
[11] = tested on: PC-3 prostate
[12] = tested on: SF-295 CNS
[13] = tested on: DU-145 prostate
[14] = tested on: MDA-MB-435
[15] = tested on: NCI/ADR-RES ovarian
[16] = tested on: SK-MEL-2 melanoma
[17] = tested on: EKVX NSCLC
[18] = tested on: NCI-H460 lung
[19] = tested on: MCF7 breast
[20] = tested on: CCRF-CEM leukemia
[21] = tested on: MDA-MB-231 breast
[22] = tested on: A549 NSCLC
[23] = tested on: HCC-2998 colon
[24] = tested on: UACC-62 melanoma
[25] = tested on: RPMI-8226 leukemia
[26] = tested on: BT-549 breast
[27] = tested on: SF-539 CNS
[28] = tested on: OVCAR-4 ovarian
[29] = tested on: MALME-3M melanoma
[30] = tested on: SW-620 colon
[31] = tested on: HS 578T breast
[32] = tested on: M14 melanoma
[33] = tested on: A498 renal
[34] = tested on: OVCAR-5 ovarian
[35] = tested on: SN12C renal
[36] = tested on: UO-31 renal
[37] = tested on: NCI-H522 lung
[38] = tested on: OVCAR-3 ovarian
[39] = tested on: HOP-92 NSCLC
[40] = tested on: SK-OV-3 ovarian
[41] = tested on: NCI-H226 lung
[42] = tested on: UACC-257 melanoma
[43] = tested on: T-47D breast
[44] = tested on: ACHN renal
[45] = tested on: OVCAR-8 ovarian
[46] = tested on: HCT-15 colon
[47] = tested on: IGROV1 ovarian
[48] = tested on: SNB-19 CNS
[49] = tested on: RXF 393 renal
[50] = tested on: TK-10 renal
[51] = tested on: SK-MEL-28 melanoma
[52] = tested on: HCT-116 colon

Compound: CCN1CCN(S(=O)(=O)c2oc(-c3ccc(Cl)cc3)nc2C#N)CC1
- GI50 [1]: 15.9 µM
- TGI [1]: 29.6 µM
- GI50 [2]: 17.2 µM
- TGI [2]: 33.6 µM
- GI50 [3]: 15.7 µM
- TGI [3]: 42.8 µM
- GI50 [4]: 11.8 µM
- TGI [4]: 41.3 µM
- GI50 [5]: 1.13 µM
- TGI [5]: 2.54 µM
- GI50 [6]: 2.78 µM
- TGI [6]: 8.19 µM
- GI50 [7]: 1.38 µM
- TGI [7]: 2.74 µM
- GI50 [8]: 14.9 µM
- TGI [8]: 30.9 µM
- GI50 [9]: 2.07 µM
- TGI [9]: 3.76 µM
- GI50 [10]: 14.1 µM
- TGI [10]: 27.4 µM
- GI50 [11]: 13.3 µM
- TGI [11]: 26.9 µM
- GI50 [12]: 17.3 µM
- TGI [12]: 31.8 µM
- GI50 [13]: 7.58 µM
- TGI [13]: 21 µM
- GI50 [14]: 4.47 µM
- TGI [14]: 16.3 µM
- GI50 [15]: 18.7 µM
- TGI [15]: 62.7 µM
- GI50 [16]: 14.5 µM
- TGI [16]: 28.3 µM
- GI50 [17]: 16 µM
- TGI [17]: 29.8 µM
- GI50 [18]: 15.8 µM
- TGI [18]: 39.9 µM
- GI50 [19]: 2.3 µM
- TGI [19]: 10.4 µM
- GI50 [20]: 1 µM
- TGI [20]: 8.75 µM
- GI50 [21]: 14.5 µM
- TGI [21]: 29.1 µM
- GI50 [22]: 17.8 µM
- TGI [22]: 35.1 µM
- GI50 [23]: 15.8 µM
- TGI [23]: 31.4 µM
- GI50 [24]: 11.2 µM
- TGI [24]: 24.2 µM
- GI50 [25]: 3.26 µM
- TGI [25]: 13.5 µM
- GI50 [26]: 4.87 µM
- TGI [26]: 18.5 µM
- GI50 [27]: 6.47 µM
- TGI [27]: 19.8 µM
- GI50 [28]: 4.04 µM
- TGI [28]: 23.4 µM
- GI50 [29]: 2.07 µM
- TGI [29]: 4.12 µM
- GI50 [30]: 1.69 µM
- TGI [30]: 4.17 µM
- GI50 [31]: 20.9 µM
- TGI [31]: 69.4 µM
- GI50 [32]: 3.5 µM
- TGI [32]: 15.7 µM
- GI50 [33]: 29.4 µM
- TGI [33]: 82.4 µM
- GI50 [34]: 14.5 µM
- TGI [34]: 29.4 µM
- GI50 [35]: 11.4 µM
- TGI [35]: 24.5 µM
- GI50 [36]: 4.1 µM
- TGI [36]: 15.9 µM
- GI50 [37]: 1.48 µM
- TGI [37]: 3.06 µM
- GI50 [38]: 1.95 µM
- TGI [38]: 3.74 µM
- GI50 [39]: 2.75 µM
- TGI [39]: 10.1 µM
- GI50 [40]: 18.7 µM
- TGI [40]: 36.9 µM
- GI50 [41]: 2.46 µM
- TGI [41]: 7.01 µM
- GI50 [42]: 10.8 µM
- TGI [42]: 23.1 µM
- GI50 [43]: 2.24 µM
- TGI [43]: 6.24 µM
- GI50 [44]: 1.91 µM
- TGI [44]: 3.42 µM
- GI50 [45]: 12.9 µM
- TGI [45]: 27.2 µM
- GI50 [46]: 1.76 µM
- TGI [46]: 3.92 µM
- GI50 [47]: 15.8 µM
- TGI [47]: 37 µM
- GI50 [48]: 15.7 µM
- TGI [48]: 29.3 µM
- GI50 [49]: 1.89 µM
- TGI [49]: 3.5 µM
- GI50 [50]: 12.8 µM
- TGI [50]: 25.8 µM
- GI50 [51]: 3.6 µM
- TGI [51]: 12.3 µM
- GI50 [52]: 2.12 µM
- TGI [52]: 6.98 µM
